In paper PMC10224329, “Design, Synthesis, and Antiproliferative Activity of Benzopyran-4-One-Isoxazole Hybrid Compounds” (Molecules, 2023):

Columns and labels:
Test in all cases: MTS cell viability assay
Type in all cases: cell-based
[1] = system: human leukemia carcinoma (CCRF-CEM) cell lines; details: Homo sapiens, CCRF-CEM
Description: (§1) All the 14 hybrid compounds synthesized via Scheme 1, along with the intermediates and starting compounds, were tested in vitro for their cytotoxicity against a panel of 6 human cancer cell lines. This panel involved human leukemia carcinoma (CCRF-CEM), human ovarian adenocarcinoma (SKOV-3), human breast tumor (MDA-MB-231), human prostate cancer (PC-3), androgen-independent human prostate cancer (DU-145), and human renal carcinoma (iSLK) cell lines. The compounds were tested at a concentration of 25 μM for incubation periods of 24 and 72 h. Standard anticancer drug doxorubicin at a concentration of 5 μM and DMSO were used as controls in all the cell assays. The antiproliferative profile of benzopyran-4-one-isoxazole conjugates is shown in Figure 2 (cf. Supplementary Materials for the data obtained for intermediates and starting materials Figure S28.1–S28.6, page no. 71–76).
(§2) Cell viability assays were performed using the MTS protocol. The in vitro cytotoxicity of the conjugates was evaluated using six human cancer cell lines, one human normal kidney cell line, and one mammalian normal kidney cell line, which included human leukemia carcinoma cell lines (CCRF-CEM), human ovarian adenocarcinoma cell lines (SKOV-3), human breast tumor cell lines (MDA-MB-231), human prostate cancer cell lines (PC-3), androgen-independent human prostate cancer cell lines (DU-145), human renal carcinoma (iSLK), human embryonic kidney cell lines (HEK-293), and normal mammalian kidney cell line (LLCPK) to determine the toxicity of the synthesized conjugates. CCRF-CEM cells were seeded at 50,000 cells in 0.1 mL per well in 96-well plates, and in the case of SKOV-3, MDA-MB-231, PC-3, DU-145, HEK-293, and LLCPK cell lines, the cells were seeded at 5000 cells in 0.1 mL per well in 96-well plates. The CCRF-CEM cells were seeded in RPMI-1640 media containing 2mM L-glutamine, 1.5 g/L sodium bicarbonate, supplemented with fetal bovine serum (FBS) 10% media, SKOV-3, MDA-MB-231, and LLCPK cells were seeded in MEME media with Earle’s salts and sodium bicarbonate, without L-glutamine, supplemented with fetal bovine serum (FBS) 10%, PC-3 cells were seeded in DMEM:F-12 containing 1:1 mixture with L-glutamine with HEPES, supplemented with fetal bovine serum (FBS) 10%, and DU-145 and HEK-293 cells were seeded in DMEM containing 4500 mg/L glucose, L-glutamine, and sodium bicarbonate, without sodium pyruvate, supplemented with FBS (10%), 24 h prior to the experiment. The compounds at a final concentration of 25 µM (higher concentration stock solution prepared in DMSO) were added to each well in triplicate and incubated for 24 and 72 h at 37 °C in a humidified atmosphere (95% air and 5% CO2). The cell viability was then determined by measuring the absorbance of the formazan product at 490 nm using a microplate reader using a SpectraMax M2 microplate spectrophotometer, Molecular Devices, San Jose, CA, USA. The percentage of cell survival was calculated as [(OD value of cells treated with the test mixture of compounds) − (OD value of culture medium)]/[(OD value of control cells) − (OD value of culture medium)] × 100%. IC50 values of compounds were calculated using non-linear regression analysis in GraphPad Prism (Boston, MA, USA).

[2] = system: human ovarian adenocarcinoma (SKOV-3) cell lines; details: SK-OV-3, conjugates at 25 μM, 72 h, read-out: Inhibition of Cancer Cell Lines SKOV-3
Description: as §1, §2

[3] = system: androgen-independent human prostate cancer (DU-145) cell lines
Description: as §1, §2

[4] = system: human breast tumor (MDA-MB-231) cell lines
Description: as §1, §2

[5] = system: human renal carcinoma (iSLK) cell lines; details: Homo sapiens; conjugates at 25 μM, 72 h; read-out: Inhibition of Cancer Cell Lines iSLK
Description: as §1, §2

[6] = system: human prostate cancer (PC-3) cell lines
Description: as §1, §2

[7] = average of three independent tests in triplicate

IC50 [1, 7]: 11.6 µM | IC50 [3, 7]: 15.3 µM | IC50 [4, 7]: 5.6 µM | IC50 ([6]; PC3, average of three independent tests in triplicate): 17.8 µM
Compound: Cc1noc(C)c1C(=O)OCc1coc2ccccc2c1=O [Compound 5a, (4-Oxo-4H-1-benzopyran-3-yl)methyl 3,5-dimethylisoxazole-4-carboxylate]
inhibition at 25 µM ([1]; conjugates at 25 μM, 72 h, read-out: Inhibition of Cancer Cell Lines CCRF-CEM): 81% | inhibition at 25 µM [2]: 69% | inhibition at 25 µM ([3]; conjugates at 25 μM, 72 h): 73% | inhibition at 25 µM ([4]; conjugates at 25 μM, 72 h, read-out: Inhibition of Cancer Cell Lines MDA-MB-231): 78% | inhibition at 25 µM [5]: 44% | inhibition at 25 µM ([6]; conjugates at 25 μM, 72 h): 70%
